Laboratory results taken from patent US9210927B2, “Pesticidal compositions and processes related thereto” (Dow AgroSciences LLC, priority 2013, dated 2015).

Experiments:
Type in all cases: in vivo
CEW (Helicoverpa zea) = assay: Bioassays on Corn Earworm (CEW), 128-well diet tray assay; details: Helicoverpa zea, 168 h; percent mortality, second instar larvae, 50 μg/cm^2 on artificial diet, five to seven days, 25° C.; read-out: CEW Rating
In short: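 Percent larval mortality, averaged across eight wells, read after five to seven days at 25 °C under 14:10 light-dark. Each well held one to five second-instar larvae on diet surface-dosed at 50 μg/cm^2 (compound applied in acetone-water 90:10, then dried).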

BAW (Spodoptera exigua) = assay: Bioassays on Beet Armyworm (BAW), 128-well diet tray assay; details: Spodoptera exigua, 168 h, read-out: BAW Rating
In short: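 Diet surface dosed at 50 μg/cm^2 (acetone-water 90:10 vehicle), dried, then infested with second-instar larvae, one to five per well. After five to seven days at 25° C. under 14:10 light-dark, mortality per well was scored and averaged over eight wells.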

GPA (Myzus persicae) = assay: Bioassays on Green Peach Aphid (GPA), foliar spray on cabbage seedlings; details: 72 h, corrected % control (Abbott), 200 ppm spray on cabbage seedlings, three days, read-out: GPA Rating
Protocol: Bioassays on Green Peach Aphid (“GPA”) (Myzus persicae) Certain molecules disclosed in this document were tested against GPA using procedures described in the following example. In the reporting of the results, the “GPA Rating Table” was used (See Table Section). Cabbage seedlings grown in 3-inch pots, with 2-3 small (3-5 cm) true leaves, were used as test substrate. The seedlings were infested with 20-50 GPA (wingless adult and nymph stages) one day prior to chemical application. Four pots with individual seedlings were used for each treatment. Test compounds (2 mg) were dissolved in 2 mL of acetone/MeOH (1:1) solvent, forming stock solutions of 1000 ppm test compound. The stock solutions were diluted 5× with 0.025% Tween 20 in H2O to obtain the solution at 200 ppm test compound. A hand-held aspirator-type sprayer was used for spraying a solution to both sides of […] leaves until runoff. Reference plants (solvent check) were sprayed with the diluent only containing 20% by volume of acetone/MeOH (1:1) solvent. Treated plants were held in a holding room for three days at approximately 25° C. and ambient relative humidity (RH) prior to grading. Evaluation was conducted by counting the number of live aphids per plant under a microscope. Percent Control was measured by using Abbott's correction formula (W. S. Abbott, “A Method of Computing the Effectiveness of an Insecticide” J. Econ. Entomol. 18 (1925), pp. 265-267) as follows. Corrected % Control=100*(X−Y)/X • where • X=No. of live aphids on solvent check plants and • Y=No. of live aphids on treated plants The results are indicated in the table entitled “Table 3: Assay Results” (See Table Section).

## CCc1cc(/C=C/C(c2cc(Cl)c(F)c(Cl)c2)C(F)(F)F)ccc1C(=O)NCC(=O)NCC(F)(F)F (stereo not drawn) [AC80]
CEW (Helicoverpa zea)
  pest or weed control at 50 µg/cm2: 50 to 100%
BAW (Spodoptera exigua)
  pest or weed control at 50 µg/cm2: 50 to 100%
GPA (Myzus persicae)
  pest or weed control at 200 ppm: 0 to 80%

## O=C(NC1CS(=O)(=O)C1)c1ccc(/C=C/C(c2cc(Cl)cc(Cl)c2)C(F)(F)F)cc1F (stereo not drawn) [AC83, (E)-4-(3-(3,5-Dichlorophenyl)-4,4,4-trifluorobut-1-en-1-yl)-N-(1,1-dioxidothietan-3-yl)-2-fluorobenzamide]
CEW (Helicoverpa zea)
  pest or weed control at 50 µg/cm2: 50 to 100%
BAW (Spodoptera exigua)
  pest or weed control at 50 µg/cm2: 50 to 100%
GPA (Myzus persicae)
  pest or weed control at 200 ppm: 0 to 80%

## COc1cc(/C=C/C(c2cc(Cl)c(F)c(Cl)c2)C(F)(F)F)ccc1C(=O)NC1CS(=O)(=O)C1 (stereo not drawn) [AC85]
CEW (Helicoverpa zea)
  pest or weed control at 50 µg/cm2: 50 to 100%
BAW (Spodoptera exigua)
  pest or weed control at 50 µg/cm2: 50 to 100%
GPA (Myzus persicae)
  pest or weed control at 200 ppm: 0 to 80%

## O=C(NC1C[S+]([O-])C1)c1ccc(/C=C/C(c2cc(Cl)c(F)c(Cl)c2)C(F)(F)F)cc1F (stereo not drawn) [AC87]
CEW (Helicoverpa zea)
  pest or weed control at 50 µg/cm2: 50 to 100%
BAW (Spodoptera exigua)
  pest or weed control at 50 µg/cm2: 50 to 100%
GPA (Myzus persicae)
  pest or weed control at 200 ppm: 0 to 80%

## Cc1cc(/C=C/C(c2cc(Cl)cc(Cl)c2)C(F)(F)F)ccc1C(=O)NCc1nnc(C2CC2)o1 (stereo not drawn) [AC89, (E)-N-((5-Cyclopropyl-1,3,4-oxadiazol-2-yl)methyl)-4-(3-(3,5-dichlorophenyl)-4,4,4-trifluorobut-1-en-1-yl)-2-methylbenzamide]
CEW (Helicoverpa zea)
  pest or weed control at 50 µg/cm2: 50 to 100%
BAW (Spodoptera exigua)
  pest or weed control at 50 µg/cm2: 50 to 100%
GPA (Myzus persicae)
  pest or weed control at 200 ppm: 0 to 80%

## O=C(NC1CCN(C(=O)CC(F)(F)F)CC1)c1ccc(/C=C/C(c2cc(Cl)c(Cl)c(Cl)c2)C(F)(F)F)cc1Br (stereo not drawn) [AC104, (E)-2-Bromo-4-(4,4,4-trifluoro-3-(3,4,5-trichlorophenyl)but-1-en-1-yl)-N-(1-(3,3,3-trifluoropropanoyl)piperidin-4-yl)benzamide]
CEW (Helicoverpa zea)
  pest or weed control at 50 µg/cm2: 50 to 100%
BAW (Spodoptera exigua)
  pest or weed control at 50 µg/cm2: 50 to 100%
GPA (Myzus persicae)
  pest or weed control at 200 ppm: 0 to 80%

## CN1CCC(NC(=O)c2ccc(/C=C/C(c3cc(Cl)c(Cl)c(Cl)c3)C(F)(F)F)cc2Br)CC1 (stereo not drawn) [AC106, (E)-2-Bromo-N-(1-methylpiperidin-4-yl)-4-(4,4,4-trifluoro-3-(3,4,5-trichlorophenyl)but-1-en-1-yl)benzamide]
CEW (Helicoverpa zea)
  pest or weed control at 50 µg/cm2: 50 to 100%
BAW (Spodoptera exigua)
  pest or weed control at 50 µg/cm2: 50 to 100%
GPA (Myzus persicae)
  pest or weed control at 200 ppm: 0 to 80%

## O=C(CC(F)(F)F)NC1CCCc2cc(/C=C/C(c3cc(Cl)c(Cl)c(Cl)c3)C(F)(F)F)ccc21 (stereo not drawn) [BC5]
CEW (Helicoverpa zea)
  pest or weed control at 50 µg/cm2: 50 to 100%
BAW (Spodoptera exigua)
  pest or weed control at 50 µg/cm2: 50 to 100%
GPA (Myzus persicae)
  pest or weed control at 200 ppm: 0 to 80%

## O=C(CC(F)(F)F)NC1CCc2cc(/C=C/C(c3cc(Cl)c(F)c(Cl)c3)C(F)(F)F)ccc21 (stereo not drawn) [BC8]
CEW (Helicoverpa zea)
  pest or weed control at 50 µg/cm2: 50 to 100%
BAW (Spodoptera exigua)
  pest or weed control at 50 µg/cm2: 50 to 100%
GPA (Myzus persicae)
  pest or weed control at 200 ppm: 0 to 80%

## Fc1c(Cl)cc(C(/C=C/c2ccc3c(c2)CCC3NCCC(F)(F)F)C(F)(F)F)cc1Cl (stereo not drawn) [BC10, (E)-5-(3-(3,5-Dichloro-4-fluorophenyl)-4,4,4-trifluorobut-1-en-1-yl)-N-(3,3,3-trifluoropropyl)-2,3-dihydro-1H-inden-1-amine]
CEW (Helicoverpa zea)
  pest or weed control at 50 µg/cm2: 50 to 100%
BAW (Spodoptera exigua)
  pest or weed control at 50 µg/cm2: 50 to 100%
GPA (Myzus persicae)
  pest or weed control at 200 ppm: 0 to 80%

## O=C(NCc1ccc(/C=C/C(c2cc(Cl)cc(Cl)c2)C(F)(F)F)cc1)C1CC1 (stereo not drawn) [CC2]
CEW (Helicoverpa zea)
  pest or weed control at 50 µg/cm2: 50 to 100%
BAW (Spodoptera exigua)
  pest or weed control at 50 µg/cm2: 50 to 100%
GPA (Myzus persicae)
  pest or weed control at 200 ppm: 0 to 80%

## CCC(=O)NCc1ccc(/C=C/C(c2cc(Cl)cc(Cl)c2)C(F)(F)F)cc1 (stereo not drawn) [CC4]
CEW (Helicoverpa zea)
  pest or weed control at 50 µg/cm2: 0 to 50%
BAW (Spodoptera exigua)
  pest or weed control at 50 µg/cm2: 50 to 100%
GPA (Myzus persicae)
  pest or weed control at 200 ppm: 0 to 80%

## O=C(NCc1ccc(/C=C/C(c2cc(Cl)c(Cl)c(Cl)c2)C(F)(F)F)cc1)C1CC1 (stereo not drawn) [CC5]
CEW (Helicoverpa zea)
  pest or weed control at 50 µg/cm2: 50 to 100%
BAW (Spodoptera exigua)
  pest or weed control at 50 µg/cm2: 50 to 100%
GPA (Myzus persicae)
  pest or weed control at 200 ppm: 0 to 80%

## O=C(CC(F)(F)F)NCc1ccc(/C=C/C(c2cc(Cl)c(Cl)c(Cl)c2)C(F)(F)F)cc1 (stereo not drawn) [CC6]
CEW (Helicoverpa zea)
  pest or weed control at 50 µg/cm2: 50 to 100%
BAW (Spodoptera exigua)
  pest or weed control at 50 µg/cm2: 50 to 100%
GPA (Myzus persicae)
  pest or weed control at 200 ppm: 0 to 80%

## CC(=O)NCc1ccc(/C=C/C(c2cc(Cl)cc(Cl)c2)C(F)(F)F)cc1Cl (stereo not drawn) [CC7, (E)-N-(2-Chloro-4-(3-(3,5-dichlorophenyl)-4,4,4-trifluorobut-1-en-1-yl)benzyl)acetamide]
CEW (Helicoverpa zea)
  pest or weed control at 50 µg/cm2: 50 to 100%
BAW (Spodoptera exigua)
  pest or weed control at 50 µg/cm2: 50 to 100%
GPA (Myzus persicae)
  pest or weed control at 200 ppm: 0 to 80%

## O=C(CC(F)(F)F)NCc1ccc(/C=C/C(c2cc(Cl)cc(Cl)c2)C(F)(F)F)cc1Cl (stereo not drawn) [CC9]
CEW (Helicoverpa zea)
  pest or weed control at 50 µg/cm2: 50 to 100%
BAW (Spodoptera exigua)
  pest or weed control at 50 µg/cm2: 50 to 100%
GPA (Myzus persicae)
  pest or weed control at 200 ppm: 0 to 80%
